Laboratory results reported in US5677324A, “Benzopyranes as potassium channel openers” (Pfizer Inc., priority 1993, dated 1997).

Tested on: guinea pig tracheal ring preparations
Assay: in vitro relaxation of guinea pig tracheal ring preparations (smooth muscle relaxant activity)
Assay type: cell-based
Settings: Cavia porcellus; relaxation of KCl (20 mM)-contracted tracheal strips, Krebs solution, 37° C.; reversal to pretreatment base line = 100 percent relaxation
Description: The compounds of the formula (I) have smooth muscle relaxant activity since they are able to open potassium channels in such tissue. They can be tested for smooth muscle relaxant activity by a method involving measuring the in vitro relaxation of guinea pig tracheal ring preparations as follows:
Male guinea pigs (500-600 g) were killed by a blow to the head and exsanguinated. The trachea was removed, placed in Krebs solution and cleaned. The trachea was slit through the cartilage along it's longitudinal axis and strips consisting of four adjacent cartilage rings were prepared. The strips were each placed in a water-jacketed organ bath (37° C.) containing Krebs solution and tied to a force-displacementtransducer for the measurement of isometric tension responses. The tissues were equilibrated for 60 minutes under a resting load of 1 g and washed every 15 minutes before the start of each experiment.
The composition of the Krebs solution was as follows (millimoles):- NaCl (119); KCl (4.7); NaHCO3 (25); KH2 PO4 (1.2); MgSO4 (1.2); CaCl2 (2.5); glucose (11), and indomethacin (2.8 μM) was added to remove the influence of the endogenous prostanoids. The solution was gassed with 95% O2 /5% CO2 and the temperature was kept constant at 37° C.
After the equilibration period a priming dose of KCl (20 mM) was added to each tissue bath and after a further 20 minutes the tissue was washed. After a further 30 minutes KCl (20 mM) was added to contract each tissue. The relaxant action of a compound of the formula (I) was examined when the maintained contractile response had stabilized. The compounds can be added cumulatively (10^-8 -10^-5 […]) at 5 minute intervals.
The reversal to pretreatment base line was taken as 100 percent relaxation in these studies and concentration-relaxation curves were constructed in order to obtain IC50 values for potency.
A selection of the compounds of the preceding Examples was tested for smooth muscle relaxant activity by the method involving measuring the in vitro relaxation of guinea pig tracheal ring preparations as described on pages 31 and 32 of the description.

| IC50 [nM] | SMILES |
| --- | --- |
| 40 | CC1(C)Oc2ccc(-c3nnnn3CCc3ccccc3)cc2[C@@H](N2CCCCC2=O)[C@@H]1O (relative stereo) [Example 35] |
| 68 | Cn1nnnc1-c1ccc2c(c1)[C@@H](N1CCCCC1=O)[C@H](O)C(C)(C)O2 (relative stereo) [Example 36] |
| 150 | Cn1nnnc1-c1ccc2c(c1)[C@@H](Oc1ccc(=O)[nH]n1)[C@](C)(O)C(C)(C)O2 [Example 3] |
| 440 | CC1(C)Oc2ccc(-c3nnnn3CCc3ccccc3)cc2C(Oc2ccc(=O)[nH]n2)C1(C)O (centres unmarked) [Example 7] |
| 120 | CCOC(=O)CCCCn1nnnc1-c1ccc2c(c1)[C@@H](Oc1ccc(O)nn1)[C@](C)(O)C(C)(C)O2 [Example 11, (3S,4R)-3,4-dihydro-6-(1-[4-ethoxycarbonylbut-1-yl]-1H-tetrazol-5-yl)-3-hydroxy-4-(3-hydroxypyridazin-6-yl)oxy-2,2,3-trimethyl-2H-benzo[b]pyran] |
